Structures can show the parent of a compound that is named as a salt.
What was measured:
[1] = target: T1, p38 MAP kinase (UniProt Q16539); assay: Inhibition of p-38 (MAP) kinase in vitro assay (transfer of γ-33P from ATP to Myelin Basic Protein); assay type: biochemical; settings: phosphorylated recombinant p38 MAP kinase, MBP substrate, γ-33P-ATP, 30° C.
T1 construct: fused on or other part: A His tag is implied by purification on a nickel column
Procedure: The p-38 MAP kinase inhibitory activity of compounds of this invention in vitro was determined by measuring the transfer of the y-phosphate from γ-^33P-ATP by p-38 kinase to Myelin Basic Protein (MBP), using the a minor modification of the method described in Ahn, N. G.; et al. J. of Biol. Chem. Vol. 266(7), 4220–4227, (1991)
The phosphorylated form of the recombinant p38 MAP kinase was expressed with SEK-1 and MEKK in E. Coli (see, Khokhlatchev, A. et al. J. of Biol. Chem. Vol. 272(17), 11057–11062, (1997) and then purified by affinity chromatography using a Nickel column.
The phosphorylated p38 MAP kinase was diluted in kinase buffer (20 mM 3-(N-morpholino)propanesulfonic acid, pH 7.2, 25 mM β-glycerol phosphate, 5 mM ethylene glycol-bis(beta-aminoethyl ether)-N,N,N′,N′-tetraacetic acid, 1 mM sodium vanadate, 1 mM dithiothreitol, 40 mM magnesium chloride). Test compound dissolved in DMSO or only DMSO (control) was added and the samples were incubated for 10 min. at 30° C. The kinase reaction was initiated by the addition of a substrate cocktail containing MBP and γ-^33P-ATP. After incubating for an additional 20 min. at 30° C., the reaction was terminated by adding 0.75% phosphoric acid. The phosphorylated MBP was then separated from the residual γ-^33P-ATP using a phosphocellulose membrane (Millipore, Bedfrod, Mass.) and quantitated using a scintillation counter (Packard, Meriden, Conn.).
The p-38 inhibitory activities (expressed as IC50, the concentration causing 50% inhibition of the p-38 enzyme being analyzed) of the compounds listed in Table 1 in the specification are between 0.01 μM and 10 μM.

| Compound | melting point | IC50 [1] |
| --- | --- | --- |
| O=C(c1ccccc1)c1cc2cnc(N[C@H]3CC[C@H](O)CC3)nc2s1 [Compound 1] | 102.6 to 103.8 °C | 0.104 µM |
| Fc1ccccc1Cc1cc2cnc(NC3CCOCC3)nc2s1 (as salt: hydrochloride) [Compound 25, 2-(tetrahydropyran-4-ylamino)-6-[(2-fluorophenyl)methyl]thieno[2,3-d]pyrimidine] | 217 to 219 °C |  |
| CS(=O)(=O)N1CCC(Nc2ncc3cc(C(O)c4ccccc4)sc3n2)CC1.Cl (centres unmarked) [Compound 23] | 152.2 to 162.1 °C | 0.128 µM |
| Fc1ccc(Sc2cc3cnc(NC4CCOCC4)nc3s2)c(F)c1 [Compound 41, [6-(2,4-Difluorophenylsulfanyl)thieno[2,3-d]pyrimidin-2-yl]-(tetrahydropyran-4-yl)-amine] |  | 0.226 µM |
| Cl.O=C(c1ccccc1)c1cc2cnc(NC3CCOCC3)nc2s1 [Compound 3] | 219.5 to 220.5 °C | 0.221 µM |
| O=C(c1cc2cnc(NC3CCOCC3)nc2s1)c1ccccc1F [Compound 9, 2-(tetrahydropyran-4-ylamino)-6-(2-fluorobenzoyl)thieno[2,3-d]pyrimidine] | 195.2 to 195.5 °C |  |
| c1ccc(Cc2cc3cnc(NC4CCCC4)nc3o2)cc1 [Compound 30, 2-(cyclopentylamino)-6-benzyl-furano[2,3-d]pyrimidine] |  | 0.744 µM |
| Cn1c(Cc2ccccc2)cc2cnc(NC3CCCC3)nc21 [Compound 33, 2-(cyclopentylamino)-6-benzyl-7-methyl-pyrrolo[2,3-d]pyrimidine] |  | 0.135 µM |
